In patent US20100093748A1, “SUBSTITUTED PIPERIDINES HAVING PROTEIN KINASE INHIBITING ACTIVITY” (ASTEX THERAPEUTICS LIMITED, priority 2006, published 2010):

system: phosphorylation of Serine-9 residue in Glycogen Synthase Kinase-3beta as surrogate marker of cellular PKB (Akt) activity; test: In vitro MDA-MB-468 human breast adenocarcinoma GSK-3 phosphorylation assay; assay type: cell-based; conditions: MDA-MB-468, 2 h, read-out: Cell pGSK3b IC50
Description: This assay determines the ability of test compounds to inhibit phosphorylation of Serine-9 residue in Glycogen Synthase Kinase-3beta (GSK-313) as a surrogate marker of cellular PKB (Akt) activity, as assessed using Acumen Explorer Fluorescent Plate-Reader technology. A MDA-MB-468 human breast adenocarcinoma cell line (LGC Promochem, Teddington, Middlesex, UK, Catalogue No. HTB-132) was routinely maintained in Dulbecco's modified Eagle's growth medium (DMEM; Invitrogen Limited, Paisley, UK Catalogue No. 11966-025) containing 10% heat-inactivated foetal calf serum (FCS; Sigma, Poole, Dorset, UK, Catalogue No. F0392) and 1% L-glutamine (Gibco, Catalogue No. 25030-024) at 37° C. with 5% CO2 up to a confluency of 70-90%.
For the phosphorylation assay, the cells were detached from the culture flask using Trypsin-EDTA (Invitrogen Limited, Catalogue No. 25300-062) and seeded into the wells of a black transparent-bottom Corning Costar Polystyrene 96 well plate (Fisher Scientific UK, Loughborough, Leicestershire, UK; Catalogue No. 3904 and DPS-130-020K) at a density of 5000 cells per well in 100 μl of complete growth media. The cells were incubated overnight at 37° C. with 5% CO2 to allow them to adhere.
On day 2, the cells were treated with test compounds and incubated for 2 hours at 37° C. with 5% CO2. Test compounds were prepared as 10mM stock solutions in DMSO and dosed directly to required concentration into test wells using non-contact (acoustic dispensing of multiple 2.5 nl droplets directly into assay wells) ECHO dosing technology (Labcyte Inc Sunnyvale, Calif., USA). Each plate contained control wells without test compound.
20 μl of fixing buffer (Phosphate Buffered Saline (PBS) containing 10% formaldehyde; Sigma; Catalogue No. F1635) was then added to each well to give a final well concentration 1.6%. Plates were then incubated for 30 minutes at room temperature prior to the fixative being removed. Each well was washed once with 250 μl of PBS and then 50 μl PBS added to each well. PBS was then aspirated and cells permeabilised and blocked by incubating each well with 50 μl of permeabilisation/blocking buffer (PBS containing 0.5% Tween 20 (Sigma; Catalogue No. P5927) and 5% Marvel Milk Powder (Andrews Pharmacy Ltd, Macclesfield, Cheshire, UK; Catalogue No. APC100199)) for 1 hour at room temperature prior to staining.
Following removal of Perm/Block buffer, 50 μl of primary anti-phospho-GSK-3β antibody (Cell Signalling Technology (New England Biolabs (Uk) Ltd.), Hitchin, Hertfordshire, UK; Catalogue No.9336 diluted 1:400 in Blocking buffer (PBS containing 5% Marvel and 0.05% Tween/Polysorbate 20) was added to each well and incubated overnight at 4° C.
Each well was washed three times in 250 μl of wash buffer (PBS containing 0.05% polysorbate 20), and cells incubated for 1 hour at room temperature with 50 μl of secondary fluorescently-labelled anti-rabbit Alexa Fluor 488 antibody (Molecular Probes, Invitrogen Limited, Catalogue No. A11008) diluted 1:750 in blocking buffer. Plates were washed three times in 250 μl of wash buffer and stored containing 50 μl of PBS at 4° C. until required.
Plates were analysed using an Acumen Explorer Plate-reader to quantify level of fluorescent signal that represents quantity of phosphorylated-GSK-313.
IC50 calculation—IC50 is the concentration of compound required to give 50% effect over the range of activity affected by the compound, between maximum (no compound) and minimum (excess level of compound) response control data. IC50 values were determined by fitting background corrected, dose response assay data to a 4 parameter logistic curve fit equation model with the minimum response set to zero. This was done using an in-house developed algorithm within the Origin graphing software package (OriginLab Corporation, Northampton, Mass., USA). […]

SMILES	IC50 [µM]
COc1ccc(Oc2ccc3[nH]c(C4(N)CCN(c5ncnc6[nH]cnc56)CC4)nc3c2)cc1 [Example 63, 4-(5-(4-methoxyphenoxy)-1H-benzo[d]imidazol-2-yl)-1-(9H-purin-6-yl)piperidin-4-amine]	> 0.96
NC1(c2nc3cc(SC(F)(F)F)ccc3[nH]2)CCN(c2ncnc3[nH]ccc23)CC1 [Example 65, 1-(7H-Pyrrolo[2,3-d]pyrimidin-4-yl)-4-(5-(trifluoromethylthio)-1H-benzo[d]imidazol-2-yl)piperidin-4-amine]	0.42

same assay, conditions: MDA-MB-468 cells, 2 hours compound incubation, mean IC50, read-out: Cell pGSK3b IC50

SMILES	IC50 [µM]
CS(=O)(=O)c1ccc(-c2cccc3[nH]c(C4(N)CCN(c5ncnc6[nH]ncc56)CC4)nc23)cc1 [Example 110, 4-[4-(4-methylsulfonylphenyl)-1H-benzo[d]imidazol-2-yl)-1-(1H-pyrazolo[3,4-d]pyrimidin-4-yl)piperidin-4-amine]	0.49
NC1(c2nc3c(-c4cccnc4)cccc3[nH]2)CCN(c2ncnc3[nH]ccc23)CC1 [Example 79]	0.085
CS(=O)(=O)c1ccccc1-c1cccc2nc(C3(N)CCN(c4ncnc5[nH]ccc45)CC3)[nH]c12 [Example 112, 4-[7-(2-methylsulfonylphenyl)-1H-benzimidazol-2-yl]-1-(7H-pyrrolo[3,2-e]pyrimidin-4-yl)piperidin-4-amine]	0.3
NC1(c2nc3c(-c4ccccc4)cccc3[nH]2)CCN(c2ncnc3[nH]ncc23)CC1 [Example 108, 4(4-phenyl-1H-benzo[d]imidazol-2-yl)-1-(1H-pyrazolo[3,4-d]pyrimidin-4-yl)piperidin-4-amine]	0.35
Cc1ccc2[nH]c(C3(CN)CCN(c4ncnc5[nH]ccc45)CC3)nc2c1 [Example 97, (4-(5-methyl-1H-benzo[d]imidazol-2-yl)-1-(7H-pyrrolo[2,3-d]pyrimidin-4-yl)piperidin-4-yl)methanamine]	0.085
NC1(c2nc3c(-c4ccoc4)cccc3[nH]2)CCN(c2ncnc3[nH]cnc23)CC1 [Example 106, 4-(4-furan-3-yl-1H-benzimidazol-2-yl)-1-(9H-purin-6-yl)piperidin-4-amine]	0.052
NC1(c2nc3c(-c4ccccc4)cccc3[nH]2)CCN(c2ncnc3[nH]ccc23)CC1 [Example 42, 4-(4-Phenyl-1H-benzoimidazol-2-yl)-1-(7H-pyrrolo[2,3-d]pyrimidin-4-yl)-piperidin-ylamine]	< 0.031
NC1(c2nc3c(-c4cncc(F)c4)cccc3[nH]2)CCN(c2ncnc3[nH]ccc23)CC1 [Example 96, 4-[4-(5-fluoropyridin-3-yl)-1H-benzimidazol-2-yl]-1-(7H-pyrrolo[3,2-e]pyrimidin-4-yl)piperidin-4-amine]	0.044
CCN(CC)S(=O)(=O)c1ccc2[nH]c(C3(N)CCN(c4ncnc5[nH]ccc45)CC3)nc2c1 [Example 59, 2-(4-amino-1-(7H-pyrrolo[2,3-d]pyrimidin-4-yl)piperidin-4-yl)-N,N-diethyl-1H-benzo[d]imidazole-5-sulfonamide]	1.9
NCC1(c2nc3ccccc3[nH]2)CCN(c2ncnc3[nH]nc(Br)c23)CC1 [Example 46, (4-(1H-benzo[d]imidazol-2-yl)-1-(3-bromo-1H-pyrazolo[3,4-d]pyrimidin-4-yl)piperidin-4-yl)methanamine]	0.097
NC1(c2nc3cc(-c4ccoc4)ccc3[nH]2)CCN(c2ncnc3[nH]ccc23)CC1 [Example 69, 4-(5-furan-3-yl-1H-benzimidazol-2-yl)-1-(7H-pyrrolo[2,3-d]pyrimidin-4-yl)piperidin-4-amine]	1.6
COc1ccc(-c2cccc3[nH]c(C4(N)CCN(c5ncnc6[nH]cnc56)CC4)nc23)cc1 [Example 104, 4-[4-(4-methoxyphenyl)-1H-benzimidazol-2-yl]-1-(9H-purin-6-yl)piperidin-4-amine]	0.12
COc1cccc(-c2ccc3[nH]c(C4(N)CCN(c5ncnc6[nH]ccc56)CC4)nc3c2)c1 [Example 76, 4-[5-(3-methoxyphenyl)-1H-benzimidazol-2-yl]-1-(7H-pyrrolo[2,3-d]pyrimidin-4-yl)piperidin-4-amine]	6.4
COc1ccc(Oc2ccc3[nH]c(C4(N)CCN(c5ncnc6[nH]ccc56)CC4)nc3c2)cc1 [Example 64, 4-(5-(4-Methoxyphenoxy)-1H-benzo[d]imidazol-2-yl)-1-(7H-pyrrolo[2,3-d]pyrimidin-4-yl)piperidin-4-amine]	0.38
NC1(c2nc3c(-c4ccco4)cccc3[nH]2)CCN(c2ncnc3[nH]ccc23)CC1 [Example 87, 4-[7-(2-furyl)-1H-benzimidazol-2-yl]-1-(7H-pyrrolo[2,3-d]pyrimidin-4-yl)piperidin-4-amine]	0.22
COc1ccccc1-c1cccc2[nH]c(C3(N)CCN(c4ncnc5[nH]ccc45)CC3)nc12 [Example 80, 4-[4-(2-methoxyphenyl)-1H-benzimidazol-2-yl]-1-(7H-pyrrolo[2,3-d]pyrimidin-4-yl)piperidin-4-amine]	0.064
CS(=O)(=O)c1ccc(-c2cccc3[nH]c(C4(N)CCN(c5ncnc6[nH]cnc56)CC4)nc23)cc1 [Example 105, 4-[4-(4-methylsulfonylphenyl)-1H-benzimidazol-2-yl]-1-(9H-purin-6-yl)piperidin-4-amine]	0.2
NC1(c2nc3cc(F)c(Cl)cc3[nH]2)CCN(c2ncnc3[nH]ccc23)CC1 [Example 52, 4-(6-chloro-5-fluoro-1H-benzimidazol-2-yl)-1-(7H-pyrrolo[2,3-d]pyrimidin-4-yl)piperidin-4-amine]	1.3
Cc1cc(Cl)cc2nc(C3(N)CCN(c4ncnc5[nH]ccc45)CC3)[nH]c12 [Example 58, 4-(5-Chloro-7-methyl-1H-benzo[d]imidazol-2-yl)-1-(7H-pyrrolo[2,3-d]pyrimidin-4-yl)piperidin-4-amine]	1.4
NC1(c2nc3cc(-n4ccnc4)ccc3[nH]2)CCN(c2ncnc3[nH]ccc23)CC1 [Example 56, 4-(5-imidazol-1-yl-1H-benzimidazol-2-yl)-1-(7H-pyrrolo[2,3-d]pyrimidin-4-yl)piperidin-4-amine]	5.5
COc1ccc(-c2cccc3[nH]c(C4(N)CCN(c5ncnc6[nH]ncc56)CC4)nc23)cc1 [Example 109, 4-[4-(4-methoxyphenyl)-1H-benzo[d]imidazol-2-yl)-1-(1H-pyrazolo[3,4-d]pyrimidin-4-yl)piperidin-4-amine]	0.65
Cc1cc2[nH]c(C3(N)CCN(c4ncnc5[nH]ccc45)CC3)nc2cc1Cl [Example 57, 4-(5-chloro-6-methyl-1H-benzo[d]imidazol-2-yl)-1-(7H-pyrrolo[2,3-d]pyrimidin-4-yl)piperidin-4-amine]	> 2.1
Cc1ccc2nc(C3(N)CCN(c4ncnc5[nH]ccc45)CC3)[nH]c2c1C [Example 51, 4-(6,7-dimethyl-1H-benzimidazol-2-yl)-1-(7H-pyrrolo[2,3-d]pyrimidin-4-yl)piperidin-4-amine]	0.8
CS(=O)(=O)c1ccc(-c2ccc3[nH]c(C4(N)CCN(c5ncnc6[nH]ccc56)CC4)nc3c2)cc1 [Example 78, 4-[5-(4-methylsulfonylphenyl)-1H-benzimidazol-2-yl]-1-(7H-pyrrolo[2,3-d]pyrimidin-4-yl)piperidin-4-amine]	16
Cc1c[nH]c2ncnc(N3CCC(CN)(c4nc5ccccc5[nH]4)CC3)c12 [Example 47, (4-(1H-benzo[d]imidazol-2-yl)-1-(5-methyl-7H-pyrrolo[2,3-d]pyrimidin-4-yl)piperidin-4-yl)methanamine]	0.17
NCC1(c2nc3cc(Cl)ccc3[nH]2)CCN(c2ncnc3[nH]cnc23)CC1 [Example 66G, (4-(5-chloro-1H-benzo[d]imidazol-2-yl)-1-(9H-purin-6-yl)piperidin-4-yl)methanamine]	0.11
